Experimental data: patent US20260356851A1, “TRICYCLIC COMPOUNDS AND USES THEREOF” (HUTCHMED LIMITED, priority 2023, published 2026)

How the values were obtained:
Type in all cases: cell-based
[1] = biological target: T1, pERK1/2 (Thr202/Tyr204), NCI-1H441 (KRAS G12V) (Homo sapiens, UniProt P01116, G12V); assay: Assay of intracellular pERK1/2 (Thr202/Tyr204) phosphorylation in NCI-H441 cells (KRAS G12V); conditions: pERK1/2, 2 days, read-out: NCI-H441 (KRAS G12V) IC50
T1 construct: pERK1/2 HTRF read-out
In short: (§1)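 Cells (10000-12000/well) exposed to 3-fold compound dilutions for 2 days at 37 °C, then lysed; pERK1/2 (Thr202/Tyr204) measured by HTRF with d2 and cryptate antibodies, 665/615 nm ratio.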

[2] = biological target: T2, pERK1/2 (Thr202/Tyr204), NCI-1H358 (KRAS G12C) (Homo sapiens, UniProt P01116, G12C); assay: Assay of intracellular pERK1/2 (Thr202/Tyr204) phosphorylation in NCI-H358 cells (KRAS G12C); conditions: pERK1/2, 2 days, read-out: NCI-H358 (KRAS G12C) IC50
T2 construct: pERK1/2 HTRF read-out
In short: as §1

[3] = biological target: T3, pERK1/2 (Thr202/Tyr204), PANC-1 (KRAS G121D) (Homo sapiens, UniProt P01116, G12D); assay: Assay of intracellular pERK1/2 (Thr202/Tyr204) phosphorylation in PANC-1 cells (KRAS G12D); conditions: pERK1/2, 2 days, read-out: PANC-1 (KRAS G12D) IC50
T3 construct: pERK1/2 HTRF read-out
In short: as §1

T1 sequence (P01116 1-188 isoform P01116-2 G12V): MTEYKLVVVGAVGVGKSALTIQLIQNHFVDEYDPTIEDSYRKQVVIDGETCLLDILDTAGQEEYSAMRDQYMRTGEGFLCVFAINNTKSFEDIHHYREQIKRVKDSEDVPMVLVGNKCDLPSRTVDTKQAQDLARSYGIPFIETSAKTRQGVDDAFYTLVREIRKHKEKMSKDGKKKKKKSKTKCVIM
T3 sequence (P01116 1-188 isoform P01116-2 G12D): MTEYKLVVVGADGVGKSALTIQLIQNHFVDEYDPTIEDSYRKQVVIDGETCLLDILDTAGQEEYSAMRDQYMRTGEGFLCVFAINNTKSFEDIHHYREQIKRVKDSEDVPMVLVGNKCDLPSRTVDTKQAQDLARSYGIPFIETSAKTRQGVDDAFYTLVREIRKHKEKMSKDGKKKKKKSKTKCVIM
T2 sequence (P01116 1-188 isoform P01116-2 G12C): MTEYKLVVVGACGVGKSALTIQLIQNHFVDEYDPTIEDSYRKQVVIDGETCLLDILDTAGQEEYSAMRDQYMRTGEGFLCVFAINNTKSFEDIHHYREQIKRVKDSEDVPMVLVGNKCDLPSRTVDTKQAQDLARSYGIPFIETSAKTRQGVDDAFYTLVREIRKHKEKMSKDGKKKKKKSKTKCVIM

IC50 [1] | IC50 [2] | IC50 [3] | Structure (SMILES)
0.3 nM | 0.1 nM | 0.4 nM | Cc1c(F)c(N)cc(-c2nc3c4c(nc(OC[C@@]56CCCN5C[C@H](F)C6)nc4c2F)N(C(C)c2cccnc2N)[C@@H](C)CO3)c1C(F)(F)F (single isomer, unassigned) [Compound 250, 3-((R or S)-1-((S)-5-(5-amino-4-fluoro-3-methyl-2-(trifluoromethyl)phenyl)-4-fluoro-2-(((2R,7aS)-2-fluorotetrahydro-1H-pyrrolizin-7a(5H)-yl)methoxy)-9-methyl-8,9-dihydro-10H-7-oxa-1,3,6,10-tetraazacyclohepta[de]naphthalen-10-yl)ethyl)pyridin-2-amine]
> 100 nM | > 100 nM | > 100 nM | Cc1ccc(C(C)N2CCOc3nc(-c4cc(N)c(F)c(C)c4C(F)(F)F)c(F)c4nc(OC[C@@]56CCCN5C[C@H](F)C6)nc2c34)c(N)n1 (single isomer, unassigned) [Compound 251, 3-((R or S)-1-(5-(5-amino-4-fluoro-3-methyl-2-(trifluoromethyl)phenyl)-4-fluoro-2-(((2R,7aS)-2-fluorotetrahydro-1H-pyrrolizin-7a(5H)-yl)methoxy)-8,9-dihydro-10H-7-oxa-1,3,6,10-tetraazacyclohepta[de]naphthalen-10-yl)ethyl)-6-methylpyridin-2-amine]
> 100 nM | > 100 nM | > 100 nM | Cc1c(F)c(N)cc(-c2nc3c4c(nc(OC[C@@]56CCCN5C[C@H](F)C6)nc4c2F)N(C(C)c2cccnc2N)C[C@H](C)O3)c1C(F)(F)F (single isomer, unassigned) [Compound 253, 3-((R or S)-1-((S)-5-(5-amino-4-fluoro-3-methyl-2-(trifluoromethyl)phenyl)-4-fluoro-2-(((2R,7aS)-2-fluorotetrahydro-1H-pyrrolizin-7a(5H)-yl)methoxy)-8-methyl-8,9-dihydro-10H-7-oxa-1,3,6,10-tetraazacyclohepta[de]naphthalen-10-yl)ethyl)pyridin-2-amine]
10 nM | 2 nM | 43 nM | Cc1c(F)c(N)cc(-c2nc3c4c(nc(OC[C@@]56CCCN5C[C@H](F)C6)nc4c2F)N(C(C)c2cccnc2N)C[C@H](C)O3)c1C(F)(F)F (single isomer, unassigned) [Compound 254, 3-((R or S)-1-((S)-5-(5-amino-4-fluoro-3-methyl-2-(trifluoromethyl)phenyl)-4-fluoro-2-(((2R,7aS)-2-fluorotetrahydro-1H-pyrrolizin-7a(5H)-yl)methoxy)-8-methyl-8,9-dihydro-10H-7-oxa-1,3,6,10-tetraazacyclohepta[de]naphthalen-10-yl)ethyl)pyridin-2-amine]
> 100 nM | 37 nM | > 100 nM | Cc1c(F)c(N)cc(-c2nc3c4c(nc(OC[C@@]56CCCN5C[C@H](F)C6)nc4c2F)N(C(C)c2cccnc2N)[C@H](C)CO3)c1C(F)(F)F (single isomer, unassigned) [Compound 255, 3-((R or S)-1-((R)-5-(5-amino-4-fluoro-3-methyl-2-(trifluoromethyl)phenyl)-4-fluoro-2-(((2R,7aS)-2-fluorotetrahydro-1H-pyrrolizin-7a(5H)-yl)methoxy)-9-methyl-8,9-dihydro-10H-7-oxa-1,3,6,10-tetraazacyclohepta[de]naphthalen-10-yl)ethyl)pyridin-2-amine]
> 100 nM | > 100 nM | > 100 nM | Cc1c(F)c(N)cc(-c2nc3c4c(nc(OC[C@@]56CCCN5C[C@H](F)C6)nc4c2F)N(C(C)c2cccnc2N)[C@H](C)CO3)c1C(F)(F)F (single isomer, unassigned) [Compound 256, 3-((R or S)-1-((R)-5-(5-amino-4-fluoro-3-methyl-2-(trifluoromethyl)phenyl)-4-fluoro-2-(((2R,7aS)-2-fluorotetrahydro-1H-pyrrolizin-7a(5H)-yl)methoxy)-9-methyl-8,9-dihydro-10H-7-oxa-1,3,6,10-tetraazacyclohepta[de]naphthalen-10-yl)ethyl)pyridin-2-amine]
6 nM | 2 nM | 51 nM | Cc1ccnc(N)c1C(C)N1CCOc2nc(-c3cc(N)c(F)c(C)c3C(F)(F)F)c(F)c3nc(OC[C@@]45CCCN4C[C@H](F)C5)nc1c23 (single isomer, unassigned) [Compound 257, 3-((R or S)-1-(5-(5-amino-4-fluoro-3-methyl-2-(trifluoromethyl)phenyl)-4-fluoro-2-(((2R,7aS)-2-fluorotetrahydro-1H-pyrrolizin-7a(5H)-yl)methoxy)-8,9-dihydro-10H-7-oxa-1,3,6,10-tetraazacyclohepta[de]naphthalen-10-yl)ethyl)-4-methylpyridin-2-amine]
> 100 nM | > 100 nM | > 100 nM | Cc1ccnc(N)c1C(C)N1CCOc2nc(-c3cc(N)c(F)c(C)c3C(F)(F)F)c(F)c3nc(OC[C@@]45CCCN4C[C@H](F)C5)nc1c23 (single isomer, unassigned) [Compound 258, 3-((R or S)-1-(5-(5-amino-4-fluoro-3-methyl-2-(trifluoromethyl)phenyl)-4-fluoro-2-(((2R,7aS)-2-fluorotetrahydro-1H-pyrrolizin-7a(5H)-yl)methoxy)-8,9-dihydro-10H-7-oxa-1,3,6,10-tetraazacyclohepta[de]naphthalen-10-yl)ethyl)-4-methylpyridin-2-amine]
65 nM | 30 nM | > 100 nM | Cc1c(F)c(N)cc(-c2nc3c4c(nc(OC[C@@]56CCCN5C[C@H](F)C6)nc4c2F)N([C@H](C)c2cn(C)nc2N)CCO3)c1C(F)(F)F (single isomer, unassigned) [Compound 260, 4-((R or S)-1-(5-(5-amino-4-fluoro-3-methyl-2-(trifluoromethyl)phenyl)-4-fluoro-2-(((2R,7aS)-2-fluorotetrahydro-1H-pyrrolizin-7a(5H)-yl)methoxy)-8,9-dihydro-10H-7-oxa-1,3,6,10-tetraazacyclohepta[de]naphthalen-10-yl)ethyl)-1-methyl-1H-pyrazol-3-amine]
> 100 nM | > 100 nM | > 100 nM | Cc1c(F)c(N)cc(-c2nc3c4c(nc(OC[C@@]56CCCN5C[C@H](F)C6)nc4c2F)N(C(C)c2cn(C)nc2N)CCO3)c1C(F)(F)F (single isomer, unassigned) [Compound 261, 4-((R or S)-1-(5-(5-amino-4-fluoro-3-methyl-2-(trifluoromethyl)phenyl)-4-fluoro-2-(((2R,7aS)-2-fluorotetrahydro-1H-pyrrolizin-7a(5H)-yl)methoxy)-8,9-dihydro-10H-7-oxa-1,3,6,10-tetraazacyclohepta[de]naphthalen-10-yl)ethyl)-1-methyl-1H-pyrazol-3-amine]
40 nM | 14 nM | 35 nM | Cc1c(F)c(N)cc(-c2nc3c4c(nc(OC[C@@]56CCCN5C[C@H](F)C6)nc4c2F)N(C(C)c2cccnc2N)[C@@H](C)CO3)c1C(F)(F)F (single isomer, unassigned) [Compound 263, 3-((R or S)-1-((S)-5-(5-amino-4-fluoro-3-methyl-2-(trifluoromethyl)phenyl)-4-fluoro-2-(((2R,7aS)-2-fluorotetrahydro-1H-pyrrolizin-7a(5H)-yl)methoxy)-9-methyl-8,9-dihydro-10H-7-oxa-1,3,6,10-tetraazacyclohepta[de]naphthalen-10-yl)ethyl)pyridin-2-amine]
> 100 nM | 93 nM | > 100 nM | CNc1ncccc1C(C)N1CCOc2nc(-c3cc(N)c(F)c(C)c3C(F)(F)F)c(F)c3nc(OC[C@@]45CCCN4C[C@H](F)C5)nc1c23 (single isomer, unassigned) [Compound 264, 3-((R or S)-1-(5-(5-amino-4-fluoro-3-methyl-2-(trifluoromethyl)phenyl)-4-fluoro-2-(((2R,7aS)-2-fluorotetrahydro-1H-pyrrolizin-7a(5H)-yl)methoxy)-8,9-dihydro-10H-7-oxa-1,3,6,10-tetraazacyclohepta[de]naphthalen-10-yl)ethyl)-N-methylpyridin-2-amine]
> 100 nM | > 100 nM | > 100 nM | CNc1ncccc1C(C)N1CCOc2nc(-c3cc(N)c(F)c(C)c3C(F)(F)F)c(F)c3nc(OC[C@@]45CCCN4C[C@H](F)C5)nc1c23 (single isomer, unassigned) [Compound 265, 3-((R or S)-1-(5-(5-amino-4-fluoro-3-methyl-2-(trifluoromethyl)phenyl)-4-fluoro-2-(((2R,7aS)-2-fluorotetrahydro-1H-pyrrolizin-7a(5H)-yl)methoxy)-8,9-dihydro-10H-7-oxa-1,3,6,10-tetraazacyclohepta[de]naphthalen-10-yl)ethyl)-N-methylpyridin-2-amine]
0.6 nM | 0.3 nM | 0.2 nM | Cc1cc(N)cc(-c2nc3c4c(nc(OC[C@@]56CCCN5C[C@H](F)C6)nc4c2F)N(C(C)c2cccnc2N)[C@@H](C)CO3)c1C(F)(F)F (single isomer, unassigned) [Compound 267]
0.3 nM | 0.2 nM | 0.6 nM | CC(c1cccnc1N)N1c2nc(OC[C@@]34CCCN3C[C@H](F)C4)nc3c(F)c(-c4cc(N)c(F)c(Cl)c4C(F)(F)F)nc(c23)OC[C@@H]1C (single isomer, unassigned) [Compound 269, 3-((R or S)-1-((S)-5-(5-amino-3-chloro-4-fluoro-2-(trifluoromethyl)phenyl)-4-fluoro-2-(((2R,7aS)-2-fluorotetrahydro-1H-pyrrolizin-7a(5H)-yl)methoxy)-9-methyl-8,9-dihydro-10H-7-oxa-1,3,6,10-tetraazacyclohepta[de]naphthalen-10-yl)ethyl)pyridin-2-amine]
